Source: PMC9144936, “New Cu^+2 Complexes with N-Sulfonamide Ligands: Potential Antitumor, Antibacterial, and Antioxidant Agents” (Molecules, 2022)

How the values were obtained:
supercoiled pUC18 DNA = test: DNA cleavage (nuclease activity), agarose gel electrophoresis with H2O2/ascorbic acid; format: biochemical; conditions: 37 °C; for effect of sodium azide on the ability to destroy the nucleic acid molecule: complex 10 μM, ascorbic acid/H2O2, 1 h, NaN3 400 mM; for concentration at which the circular shape of DNA appears / concentration at which the linear shape of DNA appears: pUC18, cacodylate buffer 0.1 M pH 6.0, H2O2/ascorbic acid, 1 h
From the text: The activity of the complexes as chemical nucleases was studied using supercoiled pUC18 DNA in cacodylate buffer (0.1M, pH 6.0) in the presence of H2O2/ascorbic acid, with a 3.0-fold excess relative to the complex concentration. The efficiency of the complexes was compared with that of both copper sulfate and bis(o-phenanthroline) Cu^+2 complex under the same reaction conditions.
The nuclease activity of the complexes C1 and C2 was studied in the presence of certain inhibiting agents: DMSO, t-butyl alcohol, distamycin, sodium azide, 2,2,6,6-tetramethyl-4-piperidone, superoxide dismutase, and neocuproine, in an attempt to determine the ROS involved in the degradation process of the DNA molecule. We chose a concentration of 10 μM for the complexes and a concentration […] for the reducing agents ascorbic acid/H2O2. The incubation period of the samples was 1 h, at 37 °C. The resulting electropherograms are presented in Figure S8 in the Supplementary Material.
Reactions were performed by mixing 7 μL of cacodylate buffer 0.1 M, pH 6 (cacodylic acid/sodium cacodylate), 6 μL of complex solution (final concentrations: 5, 10, 15, and 20 μM), 1 μL of pUC18 DNA solution (0.25 μg/μL, 750 μM in base pairs), and 6 μL of activating agent solution (H2O2/ascorbic acid) in a 3-fold molar excess relative to the concentration of the complex. The resulting solutions were incubated for 1 h at 37 °C, after which a quench buffer solution (3 μL) consisting of bromophenol blue (0.25%), xylene cyanol (0.25%), and glycerol (30%) was added. The solution was then subjected to electrophoresis on 0.8% agarose gel in 0.5 × TBE buffer (0.045 M Tris, 0.045 M boric acid, and 1 mM EDTA) containing 5 μL/100 mL of a solution of ethidium bromide (10 mg/mL) at 100 V for 2 h. The bands were photographed on a capturing system (Gelprinter Plus TDI).
To test for the presence of reactive oxygen species (ROS) generated during strand scission and for possible complex–DNA interaction sites, various reactive oxygen intermediate scavengers and groove binders were added to the reaction mixtures. The scavengers used were 2,2,6,6-tetramethyl-4-piperidone (0.5 M), dimethylsulfoxide (DMSO) 14 M, t-butyl alcohol (10.5 M), sodium azide (NaN3) (400 mM), and superoxide dismutase (SOD) (15 units). In addition, a chelating agent of copper(I) and neocuproine (36 μM), along with the groove binder distamycin (80 μM) were also assayed. Samples were treated as described above.

[1] = test system: human cervical carcinoma line (HeLa); test: MTT cytotoxicity assay, HeLa; format: cell-based; conditions: HeLa cells
Description: Three cell lines were used to determine the cytotoxicity of the complexes, a human cervical carcinoma line (HeLa), a human radical growth phase melanoma cell line (WM35), and a normal fibroblastic epithelial cell line (HFL1) using the MTT method. The cells were exposed to C1 and C2 complexes in different concentrations (50, 25, 12.5, 2, and 0.2 µM) at 24, 48, and 72 h. As positive contro, cisplatin was used.
To determine the cytotoxicity of the copper complexes, three cell lines were used: a human cervical carcinoma line (HeLa), a human radical growth phase melanoma cell line (WM35), and a normal fibroblastic epithelial cell line (HFL1). The cell lines were obtained from ATCC (American Type Cell Collection, Manassas, VA 20110-2209, USA) and were maintained in DMEM (Sigma-Aldrich, Saint Louis, Missouri, USA) supplemented with 10% fetal bovine serum (Hyclone), 1 mM glutamine (Sigma-Aldrich), and 1% antibiotic antimycotic 100× (Sigma-Aldrich). The cells were cultured at 37 °C in an atmosphere of 5% CO2 and 95% relative humidity.
The cytotoxicity assays were performed using the MTT assay (3-(4,5-dimethylthiazol-2-yl)-2,5-diphenyl tetrazolium bromide-Sigma Aldrich). Cells were plated at a density of 1 × 10^5 cells/well in 96-well plates for 24 h in normal propagation media. The cultures were then exposed to C1 and C2 complexes in different concentrations (50, 25, 12.5, 2, and 0.2 µM). The complexes were first solubilized in DMSO (Sigma) and then serial dilutions in media were performed until the final concentration of DMSO was less than 1%. As a positive control, cisplatin (Ebewe Pharma Ges.m.b.H. Nfg. KG, Austria) was used, in the same concentrations as the complexes. As a negative control, cell lines cultivated in normal expansion medium with the same amount of DMSO added were used. The cellular viability was determined using the MTT assay at 24, 48, and 72 h, respectively. Formazan particles were solubilized with DMSO and absorbances were determined at 550 nm using a microplate reader (Bio-Rad, Hercules, CA, USA). The cytotoxic activity, expressed as IC50 values representing the complex solution required to inhibit 50% of the cell proliferation, were calculated from the calibration curve by nonlinear regression. Each experiment was carried out in triplicate.

| Substance | effect of sodium azide on the ability to destroy the nucleic acid molecule (supercoiled pUC18 DNA) | concentration at which the circular shape of DNA appears (supercoiled pUC18 DNA) | concentration at which the linear shape of DNA appears (supercoiled pUC18 DNA) | IC50 ([1]; 24 h) | IC50 ([1]; 48 h) | IC50 ([1]; 72 h) |
| --- | --- | --- | --- | --- | --- | --- |
| [Cu(N-(5-(4-Methylphenyl)-[1,3,4]-Thiadiazole-2-yl) Naphtalenesulfonamidate)2(H2O)3] [C1] | little effect | 15 µM | 20 µM | 33.18 ± 0.19 µM | 16.36 ± 0.12 µM | 6.47 ± 0.06 µM |
| [Cu(N-(5-Ethyl--[1,3,4]-Thiadiazole-2-yl) Naphtalenesulfonamidate)2(py)2(H2O)] [C2] | little effect | 10 µM | 15 µM | 8.79 ± 0.21 µM | 4.06 ± 0.05 µM | 1.45 ± 0.09 µM |
